{"source": "ChEMBL document CHEMBL1201862", "about": "“PubChem BioAssay data set” (2004)", "experiment_in_all_cases": "NCI-60 cell line screen, 48 h", "key": {"[1]": {"system": "UO-31"}, "[2]": {"system": "HL-60"}, "[3]": {"system": "HCT-15"}, "[4]": {"system": "K562"}, "[5]": {"system": "SF-295"}, "[6]": {"system": "SF-539"}, "[7]": {"system": "SK-MEL-5"}, "[8]": {"system": "HCT-116"}, "[9]": {"system": "786-0"}, "[10]": {"system": "HOP-62"}, "[11]": {"system": "TK-10"}, "[12]": {"system": "A549"}, "[13]": {"system": "KM-20L2"}, "[14]": {"system": "SK-MEL-2"}, "[15]": {"system": "SK-OV-3"}, "[16]": {"system": "NCI-H460"}, "[17]": {"system": "OVCAR-5"}, "[18]": {"system": "DMS-114"}, "[19]": {"system": "OVCAR-8"}, "[20]": {"system": "OVCAR-3"}, "[21]": {"system": "IGROV-1"}, "[22]": {"system": "COLO 205"}, "[23]": {"system": "U-251"}, "[24]": {"system": "SNB-78"}, "[25]": {"system": "XF498"}, "[26]": {"system": "UACC-62"}, "[27]": {"system": "NCI-H23"}, "[28]": {"system": "DMS-273"}, "[29]": {"system": "OVCAR-4"}, "[30]": {"system": "HT-29"}, "[31]": {"system": "M14"}, "[32]": {"system": "Malme-3M"}, "[33]": {"system": "RXF 631"}, "[34]": {"system": "LOX IMVI"}, "[35]": {"system": "SR"}, "[36]": {"system": "HCC 2998"}, "[37]": {"system": "NCI-H522"}, "[38]": {"system": "SNB-75"}, "[39]": {"system": "A498"}, "[40]": {"system": "NCI-H226"}, "[41]": {"system": "M19-MEL"}, "[42]": {"system": "LXFL 529"}, "[43]": {"system": "UACC-257"}, "[44]": {"system": "SN12C"}, "[45]": {"system": "DLD-1"}, "[46]": {"system": "HOP-18"}, "[47]": {"system": "SNB-19"}, "[48]": {"system": "RXF 393"}, "[49]": {"system": "EKVX"}, "[50]": {"system": "SK-MEL-28"}, "[51]": {"system": "SW-620"}, "[52]": {"system": "SF-268"}, "[53]": {"system": "CCRF-CEM"}, "[54]": {"system": "KM12"}, "[55]": {"system": "ACHN"}}, "note": "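Grown in 96-well plates, cells were treated for 48 hours with each compound at five concentrations. Insufficient inhibition: endpoint recorded as highest concentration tested. GI50: concentration for 50% inhibition of growth.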 The source made the active and inactive calls. Cut-off read from the data, not from the text of the source: active = GI50 up to about 1.1 µM and inactive = higher."}
{"smiles": "COC(=O)CCC(NC(=S)N/N=C/c1ccco1)C(=O)OC", "note": "(stereo not given)", "values": [{"measurement": "GI50", "setting": "[1]", "result": "> 100 µM (inactive)"}, {"measurement": "GI50", "setting": "[2]", "result": "> 100 µM (inactive)"}, {"measurement": "GI50", "setting": "[3]", "result": "> 100", "unit": "µM"}, {"measurement": "GI50", "setting": "[4]", "result": "> 100 µM (inactive)"}, {"measurement": "GI50", "setting": "[5]", "result": "> 100 µM (inactive)"}, {"measurement": "GI50", "setting": "[6]", "result": "> 100 µM (inactive)"}, {"measurement": "GI50", "setting": "[7]", "result": "> 100 µM (inactive)"}, {"measurement": "GI50", "setting": "[8]", "result": "> 100 µM (inactive)"}, {"measurement": "GI50", "setting": "[9]", "result": "> 100 µM (inactive)"}, {"measurement": "GI50", "setting": "[10]", "result": "> 100 µM (inactive)"}, {"measurement": "GI50", "setting": "[11]", "result": "> 100 µM (inactive)"}, {"measurement": "GI50", "setting": "[12]", "result": "> 100 µM (inactive)"}, {"measurement": "GI50", "setting": "[13]", "result": "> 100 µM (inactive)"}, {"measurement": "GI50", "setting": "[14]", "result": "> 100 µM (inactive)"}, {"measurement": "GI50", "setting": "[15]", "result": "> 100 µM (inactive)"}, {"measurement": "GI50", "setting": "[16]", "result": "> 100 µM (inactive)"}, {"measurement": "GI50", "setting": "[17]", "result": "> 100 µM (inactive)"}, {"measurement": "GI50", "setting": "[18]", "result": "> 100 µM (inactive)"}, {"measurement": "GI50", "setting": "[19]", "result": "> 100 µM (inactive)"}, {"measurement": "GI50", "setting": "[20]", "result": "> 100 µM (inactive)"}, {"measurement": "GI50", "setting": "[21]", "result": "> 100 µM (inactive)"}, {"measurement": "GI50", "setting": "[22]", "result": "> 100 µM (inactive)"}, {"measurement": "GI50", "setting": "[23]", "result": "> 100 µM (inactive)"}, {"measurement": "GI50", "setting": "[24]", "result": "> 100 µM (inactive)"}, {"measurement": "GI50", "setting": "[25]", "result": "> 100 µM (inactive)"}, {"measurement": "GI50", "setting": "[26]", "result": "> 100 µM (inactive)"}, {"measurement": "GI50", "setting": "[27]", "result": "> 100 µM (inactive)"}, {"measurement": "GI50", "setting": "[28]", "result": "> 100 µM (inactive)"}, {"measurement": "GI50", "setting": "[29]", "result": "> 100 µM (inactive)"}, {"measurement": "GI50", "setting": "[30]", "result": "> 100 µM (inactive)"}, {"measurement": "GI50", "setting": "[31]", "result": "> 100 µM (inactive)"}, {"measurement": "GI50", "setting": "[32]", "result": "> 100 µM (inactive)"}, {"measurement": "GI50", "setting": "[33]", "result": "> 100 µM (inactive)"}, {"measurement": "GI50", "setting": "[34]", "result": "> 100 µM (inactive)"}, {"measurement": "GI50", "setting": "[35]", "result": "> 100 µM (inactive)"}, {"measurement": "GI50", "setting": "[36]", "result": "> 100 µM (inactive)"}, {"measurement": "GI50", "setting": "[37]", "result": "> 100 µM (inactive)"}, {"measurement": "GI50", "setting": "[38]", "result": "> 100 µM (inactive)"}, {"measurement": "GI50", "setting": "[39]", "result": "> 100 µM (inactive)"}, {"measurement": "GI50", "setting": "[40]", "result": "> 100 µM (inactive)"}, {"measurement": "GI50", "setting": "[41]", "result": "> 100 µM (inactive)"}, {"measurement": "GI50", "setting": "[42]", "result": "> 100 µM (inactive)"}, {"measurement": "GI50", "setting": "[43]", "result": "> 100 µM (inactive)"}, {"measurement": "GI50", "setting": "[44]", "result": "> 100 µM (inactive)"}, {"measurement": "GI50", "setting": "[45]", "result": "> 100 µM (inactive)"}, {"measurement": "GI50", "setting": "[46]", "result": "> 100 µM (inactive)"}, {"measurement": "GI50", "setting": "[47]", "result": "> 100 µM (inactive)"}, {"measurement": "GI50", "setting": "[48]", "result": "> 100 µM (inactive)"}, {"measurement": "GI50", "setting": "[49]", "result": "> 100 µM (inactive)"}, {"measurement": "GI50", "setting": "[50]", "result": "> 100 µM (inactive)"}, {"measurement": "GI50", "setting": "[51]", "result": "> 100 µM (inactive)"}, {"measurement": "GI50", "setting": "[52]", "result": "> 100 µM (inactive)"}, {"measurement": "GI50", "setting": "[53]", "result": "> 100 µM (inactive)"}, {"measurement": "GI50", "setting": "[54]", "result": "> 100 µM (inactive)"}, {"measurement": "GI50", "setting": "[55]", "result": "> 100 µM (inactive)"}]}
